Reference: patent publication US10919885B2, “Compounds and uses thereof” (Yumanity Therapeutics, Inc., priority 2018, dated 2021)

target: human SCD1 (Homo sapiens (Human), UniProt O00767); assay: Yeast growth assay, strain expressing human SCD1 as the sole desaturase (reduced growth as surrogate for SCD inhibition); type: cell-based; conditions: yeast with OLE1 deleted expressing human SCD1 from a plasmid; growth read as OD600 after 40 h at 30° C.; top drug concentration 33.3 μM
Description: Strains expressing SCD1 or SCD5 as the sole desaturase, the human SCD1 and SCD5 genes were used to evaluate inhibition of SCD1/SCD5 using reduced growth as a surrogate for SCD inhibition. These yeast strains express human SCD1 or SCD5 from a plasmid harbored in a strain in which the yeast OLE1 gene is deleted.
All compound profiling experiments were performed using the same basic protocol. Yeast were cultured using standard techniques in complete synthetic media lacking uracil and containing yeast nitrogen base supplemented with 2% (w/v) glucose (SD-Ura) Starter cultures were inoculated in 3 mL SD-Ura media containing 0.01% tween and 0.2 mM palmitoleic and oleic acid. Cultures were incubated overnight in a 30° C. shaker incubator (225 rpm). Saturated morning cultures were centrifuged, washed in SD-Ura media lacking TWEEN-20 and fatty acids, and then diluted 1:20 in fresh SD-Ura media also lacking TWEEN-20 and fatty acids.
Compound administration was performed in two separate steps. First, 15 μL of SD-Ura was dispensed into clear 384-well assay plates using a MULTIDROP™ Combi reagent dispenser. […] The cultures described above were centrifuged and washed with media lacking TWEEN-20 or oleic and palmitoleic acids.
After yeast delivery, assay plates were incubated under humidified conditions at 30° C. for 40 h. Yeast growth was monitored by reading the OD600 of each well using a microplate reader (Perkin Elmer EnVision™).

Chain of human SCD1 (O00767 whole entry): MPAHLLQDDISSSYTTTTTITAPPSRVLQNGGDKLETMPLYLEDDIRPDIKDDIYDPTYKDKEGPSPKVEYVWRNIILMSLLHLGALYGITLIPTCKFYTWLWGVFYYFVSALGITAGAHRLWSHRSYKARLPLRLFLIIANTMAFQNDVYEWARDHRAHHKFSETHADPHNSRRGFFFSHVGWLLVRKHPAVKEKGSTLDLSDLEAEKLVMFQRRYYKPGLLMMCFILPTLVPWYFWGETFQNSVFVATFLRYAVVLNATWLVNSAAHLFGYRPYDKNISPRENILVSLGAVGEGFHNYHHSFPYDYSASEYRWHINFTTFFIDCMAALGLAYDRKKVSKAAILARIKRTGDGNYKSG

IC50 | Compound
> 45 µM | O=C(c1cc(-c2ccc3c(c2)OCO3)on1)N1CCCC1c1ccncc1F (stereo not drawn) [Compound 460]
> 45 µM | N#Cc1ccccc1-c1cc(C(=O)N2CCC[C@H]2c2ccccc2)no1 [Compound 402]
27.1 µM | COc1ccc(-c2cc(C(=O)N3CCC[C@H]3c3ccccc3)no2)cn1 [Compound 410]
3.9 µM | O=C(Nc1cnn(Cc2cccc(F)c2)c1)c1cc(Cl)on1 [Compound 105, 5-chloro-N-(1-(3-fluorobenzyl)-1H-pyrazol-4-yl)isoxazole-3-carboxamide]
> 45 µM | Cc1cccc(C2CCCN2C(=O)c2cc(-c3ccc4c(c3)OCO4)on2)c1 (stereo not drawn) [Compound 355]
31.1 µM | N#Cc1cccc(-c2cc(C(=O)N3CCC[C@H]3c3ccccc3)no2)c1 [Compound 403]
> 45 µM | O=C(Nc1cnn(Cc2ccc(F)cc2)c1)c1cc(-c2ccco2)on1 [Compound 18, N-[1-[(4-fluorophenyl)methyl]pyrazol-4-yl]-5-(2-furyl)isoxazole-3-carboxamide]
> 45 µM | CC(C)(C)OC(=O)N1CCN(C(=O)c2cc(-c3ccc4c(c3)OCO4)on2)CC1 [Compound 267]
> 45 µM | O=C(c1cc(-c2ccc3c(c2)OCO3)on1)N1CCC[C@H]1C(F)(F)F [Compound 373]
> 45 µM | O=C(c1cc(-c2ccc3c(c2)OCO3)on1)N1CCC[C@H]1c1ccon1 [Compound 426]
> 45 µM | O=C(c1cc(-c2ccc3c(c2)OCO3)on1)N1CCOc2ccccc21 [Compound 262]
> 45 µM | Cn1nccc1-c1ccc2c(C(=O)N3CCC[C@H]3c3ccccc3)noc2c1 [Compound 454]
> 45 µM | O=C(c1cc(-c2ccc3c(c2)OCO3)on1)N1CCCC1C1CCOCC1 (stereo not drawn) [Compound 413]
> 45 µM | O=C(Nc1cnn(Cc2ccccc2C(F)(F)F)c1)c1cc(-c2ccco2)on1 [Compound 14, 5-(furan-2-yl)-N-(1-(2-(trifluoromethyl)benzyl)-1H-pyrazol-4-yl)isoxazole-3-carboxamide]
2 µM | O=C(Nc1cnn(Cc2ccccc2)c1)c1cc(N2CC[C@@H](O)C2)on1 [Compound 186, (R)—N-(1-benzyl-1H-pyrazol-4-yl)-5-(3-hydroxypyrrolidin-1-yl)isoxazole-3-carboxamide]
> 45 µM | O=C(c1cc(-c2ccccc2Cl)on1)N1CCC(c2ccccc2)C1 (stereo not drawn) [Compound 333]

IC50 | Compound
> 45 µM | O=C(c1cc(-c2ccc3c(c2)OCO3)on1)N1CCCC1c1cc(Br)no1 (stereo not drawn) [Compound 412]
> 45 µM | O=C(c1cc(-c2ccc3c(c2)OCO3)on1)N1CCCC1c1nc2ccccc2o1 (stereo not drawn) [Compound 461]
> 45 µM | O=C(c1cc(-c2ccc3c(c2)OCO3)on1)N1CCCC1c1ccccc1Br (stereo not drawn) [Compound 390]
5.12 µM | COCc1ncc(-c2cc(C(=O)Nc3cnn(Cc4ccccc4)c3)no2)s1 [Compound 140, N-(1-benzyl-1H-pyrazol-4-yl)-5-(2-(methoxymethyl)thiazol-5-yl)isoxazole-3-carboxamide]
> 45 µM | COc1ccc([C@H]2CCCN2C(=O)c2cc(-c3ccc4c(c3)OCO4)on2)cc1 [Compound 360]
> 45 µM | COC1CCN(c2cc(C(=O)N3CC(c4ccccc4)C3)no2)CC1 [Compound 249]
> 45 µM | O=C(Nc1cnn(Cc2ccccc2Cl)c1)c1cc(-c2ccco2)on1 [Compound 23, N-[1-[(2-chlorophenyl)methyl]pyrazol-4-yl]-5-(2-furyl)isoxazole-3-carboxamide]
> 45 µM | C[C@@H]1CCCN1C(=O)c1cc(-c2ccc3c(c2)OCO3)on1 [Compound 370]
> 45 µM | O=C(c1cc(-c2ccccn2)on1)N1CCC[C@H]1c1ccccc1 [Compound 408]
15 µM | O=C(Nc1cnn(Cc2ccccc2)c1)c1cc(N2CC[C@H](O)C2)on1 [Compound 187]
> 45 µM | O=C(c1cc(-c2ccc3c(c2)OCO3)on1)N1CCCc2cccc(F)c21 [Compound 264]
> 45 µM | O=C(c1cc(N2CCOCC2)on1)N1CCC[C@H]1c1ccccc1 [Compound 463]
> 45 µM | O=C(c1cc(-c2ccccc2)on1)N1CCC(c2cccc(F)c2)CC1 [Compound 307, [4-(3-fluorophenyl)-1-piperidyl]-(5-phenylisoxazol-3-yl)methanone]
> 45 µM | N#Cc1ccc(C2CCCN2C(=O)c2cc(-c3ccc4c(c3)OCO4)on2)cc1 (stereo not drawn) [Compound 395]
> 45 µM | Cn1ccnc1C1CCCN1C(=O)c1cc(-c2ccc3c(c2)OCO3)on1 (stereo not drawn) [Compound 446]

Continued, molecule first:

Compound | IC50
COc1ccc([C@@H]2CCCN2C(=O)c2cc(-c3ccc4c(c3)OCO4)on2)cc1 [Compound 359] | > 45 µM
O=C(Nc1cnn(Cc2ccccc2)c1)c1cc(-c2cnco2)on1 [Compound 149, N-(1-benzyl-1H-pyrazol-4-yl)-5-(oxazol-5-yl)isoxazole-3-carboxamide] | > 45 µM
O=C(c1cc(-c2ccc3c(c2)OCO3)on1)N1CCCC1c1ccc(Br)cc1 (stereo not drawn) [Compound 389] | > 45 µM
O=C(Nc1cnn(Cc2ccccc2)c1)c1cc(-c2nncs2)on1 [Compound 170, N-(1-benzyl-1H-pyrazol-4-yl)-5-(1,3,4-thiadiazol-2-yl)isoxazole-3-carboxamide] | 0.131 µM
O=C(c1cc(-c2ccccc2)on1)N1CC=C(c2cc(F)ccc2Cl)CC1 [Compound 305] | 4.8 µM
O=C(c1cc(-c2ccccc2)on1)N1CC(Cc2ccccc2)C1 [Compound 211, (3-benzylazetidin-1-yl)-(5-phenylisoxazol-3-yl)methanone] | 0.12 µM
COC1(c2cc(C(=O)Nc3cnn(Cc4cccc(F)c4)c3)no2)CCC1 [Compound 115, N-(1-(3-fluorobenzyl)-1H-pyrazol-4-yl)-5-(1-methoxycyclobutyl)isoxazole-3-carboxamide] | 0.34 µM
O=C(c1cc(-c2ccc3c(c2)OCO3)on1)N1CCC[C@@H]1c1ccccc1 [Compound 358] | > 45 µM
O=C(c1cc(-c2ccccc2)on1)N1CCC(c2ccccc2C(F)(F)F)CC1 [Compound 289, (5-phenylisoxazol-3-yl)-[4-[2-(trifluoromethyl)phenyl]-1-piperidyl]methanone] | > 45 µM
COc1ccc(C2CCCN2C(=O)c2cc(-c3ccc4c(c3)OC(F)(F)O4)on2)cc1 (stereo not drawn) [Compound 393] | > 45 µM
O=C(c1cc(-c2ccc3c(c2)OCO3)on1)N1CCC(c2cccc(F)c2)CC1 [Compound 309, [5-(1,3-benzodioxol-5-yl)isoxazol-3-yl]-[4-(3-fluorophenyl)-1-piperidyl]methanone] | > 45 µM
CC(C)c1cc(C(=O)Nc2cnn(Cc3ccccc3)c2)no1 [Compound 117, N-(1-benzyl-1H-pyrazol-4-yl)-5-isopropylisoxazole-3-carboxamide] | 0.026 µM
COc1ccc(C2CCCN2C(=O)c2cc(-c3ccc4c(C)nn(C)c4c3)on2)cc1 (stereo not drawn) [Compound 394] | > 45 µM
Cc1ncc(-c2cc(C(=O)Nc3cnn(Cc4ccccc4)c3)no2)o1 [Compound 164, N-(1-benzyl-1H-pyrazol-4-yl)-5-(2-methyloxazol-5-yl)isoxazole-3-carboxamide] | 11 µM
O=C(c1cc(-c2ccc(Cl)cn2)on1)N1CC(Cc2ccccc2)C1 [Compound 254] | > 45 µM
O=C(Nc1cnn(Cc2cnccc2C(F)(F)F)c1)c1cc(-c2ccc3c(c2)OCO3)on1 [Compound 199, 5-(2H-1,3-benzodioxol-5-yl)-N-(1-{[4-(trifluoromethyl)pyridin-3-yl]methyl}-1H-pyrazol-4-yl)-1,2-oxazole-3-carboxamide] | > 45 µM
O=C(Nc1cnn(Cc2ccccc2)c1)c1cc(-c2ccccn2)on1 [Compound 8, N-(1-benzylpyrazol-4-yl)-5-(2-pyridyl)isoxazole-3-carboxamide] | 0.7 µM
O=C(Nc1cnn(CC2CCCCC2)c1)c1cc(-c2ccco2)on1 [Compound 26, N-[1-(cyclohexylmethyl)pyrazol-4-yl]-5-(2-furyl)isoxazole-3-carboxamide] | > 45 µM
O=C(Nc1cnn(Cc2cccc(F)c2)c1)c1cc(C2=CCCCC2)on1 [Compound 85, 5-cyclohexenyl-N-(1-(3-fluorobenzyl)-1H-pyrazol-4-yl)isoxazole-3-carboxamide] | 0.011 µM
O=C(NC1CCN(c2ccccc2)C1)c1cc(-c2ccco2)on1 (stereo not drawn) [Compound 343] | > 45 µM
CC1(c2cc(C(=O)Nc3cnn(Cc4ccccc4)c3)no2)COC1 [Compound 121] | 0.21 µM
O=C(c1cc(-c2ccc3c(c2)OCO3)on1)N1CCCC1c1ccccc1 (stereo not drawn) [Compound 354] | > 45 µM
COc1ccc(C2CCCN2C(=O)c2cc(-c3ccc(OC(F)(F)F)cc3)on2)cc1 (stereo not drawn) [Compound 380] | > 45 µM
CO[C@H]1CCN(c2cc(C(=O)Nc3cnn(Cc4ccccc4)c3)no2)C1 [Compound 189, (S)—N-(1-benzyl-1H-pyrazol-4-yl)-5-(3-methoxypyrrolidin-1-yl)isoxazole-3-carboxamide] | 0.065 µM
O=C(c1cc(-c2ccccc2)on1)N1CC2(C1)CC(O)(c1ccccc1)C2 [Compound 226, (6-hydroxy-6-phenyl-2-azaspiro[3.3]heptan-2-yl)-(5-phenylisoxazol-3-yl)methanone] | 12 µM
Cc1nn(Cc2ccccc2)c(C)c1NC(=O)c1cc(-c2ccc3c(c2)OCO3)on1 [Compound 5] | > 45 µM
